# “And” between values parts separate entries of the source, which are not always exact repeats. Equal entries are not always repeated. Bridge positions count the residues as written; N and C are the ends. Peptide text beside a SMILES is read from it.
# What was measured:
# [1] = test system: V2R-mediated ERK 1/2 phosphorylation; experiment: Immunoblotting for ERK 1/2 phosphorylation in HEK293 cells expressing V2R; format: cell-based, human; conditions: 1 µM peptide
# Procedure: Immunoblotting was performed as described previously. Briefly, following an overnight incubation and 16 h starvation HEK293 cells transiently expressing human V2R were treated with 1 µM I8-arachnotocin or 1 µM VP prepared in DMEM. Cells were incubated with peptide ligands at 37 °C for indicated periods and 1 mL of chilled 1x phosphate-buffered saline were used to terminate the incubation. After freeze-thaw cycle in liquid nitrogen cells were solubilized in 100 µl of lysis buffer (50 mM HEPES, 0.5% NP-40 substitute, 50 mM glycerol-2-phosphate, 250 mM NaCl, 5 mM EDTA, 2 mM imidazole, 1 mM Na3VO4, 1 mM hepta-molybdate, pH adjusted to 7.0 with NaOH), freshly added 1 mM PMSF, one cOmplete Mini EDTA-free tablet (Roche) and one PhosSTOP tablet (Roche) and then centrifuged at 10,000 × g for 10 min. The bicinchoninic acid assay (Micro-BCA kit, Pierce) was used to measure total protein content. Phosphorylated and total ERK 1/2 were detected by immunoblotting on the same membrane using the same exposure method with an anti-phospho-p44/42 MAPK antibody (ERK 1/2) (1:1,000; Cell Signaling Technology) and an anti-p44/42 MAPK (ERK 1/2) (1:1,000; Cell Signaling Technology), respectively. Detection and quantification of resulting bands were executed by secondary antibodies (Donkey anti rabbit 680RD and […]) and Odyssey Clx (LiCor Biosciences) infrared fluorescent imaging system, respectively.
# human OTR [2] = molecular target: T1, human OTR (Homo sapiens, UniProt P30559); experiment: β-arrestin-2 recruitment BRET at OTR
# T1 sequence (P30559 1-389): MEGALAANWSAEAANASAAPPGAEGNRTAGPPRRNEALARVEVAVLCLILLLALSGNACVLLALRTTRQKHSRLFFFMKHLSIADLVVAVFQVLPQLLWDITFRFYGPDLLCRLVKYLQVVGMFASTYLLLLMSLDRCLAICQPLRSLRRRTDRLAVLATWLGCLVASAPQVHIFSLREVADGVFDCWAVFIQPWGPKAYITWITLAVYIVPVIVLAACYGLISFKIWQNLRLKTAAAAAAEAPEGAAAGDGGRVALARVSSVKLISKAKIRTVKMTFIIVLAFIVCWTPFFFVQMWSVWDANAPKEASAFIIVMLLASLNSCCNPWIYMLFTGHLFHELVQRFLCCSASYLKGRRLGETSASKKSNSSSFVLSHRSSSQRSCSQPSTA
# human V2R [3] = molecular target: T2, human V2R (Homo sapiens, UniProt P30518); experiment: β-arrestin-1 recruitment BRET at V2R
# human V1aR [4] = molecular target: T3, human V1aR (Homo sapiens, UniProt P37288); experiment: β-arrestin-2 recruitment BRET at V1aR
# human V1bR [5] = molecular target: T4, human V1bR (Homo sapiens, UniProt P47901); experiment: β-arrestin-2 recruitment BRET at V1bR; format: cell-based; parameters: expressed in transfected cells; host or cells: HEK293; conditions: for EC50: β-arrestin-2 recruitment
# T4 sequence (P47901 1-424): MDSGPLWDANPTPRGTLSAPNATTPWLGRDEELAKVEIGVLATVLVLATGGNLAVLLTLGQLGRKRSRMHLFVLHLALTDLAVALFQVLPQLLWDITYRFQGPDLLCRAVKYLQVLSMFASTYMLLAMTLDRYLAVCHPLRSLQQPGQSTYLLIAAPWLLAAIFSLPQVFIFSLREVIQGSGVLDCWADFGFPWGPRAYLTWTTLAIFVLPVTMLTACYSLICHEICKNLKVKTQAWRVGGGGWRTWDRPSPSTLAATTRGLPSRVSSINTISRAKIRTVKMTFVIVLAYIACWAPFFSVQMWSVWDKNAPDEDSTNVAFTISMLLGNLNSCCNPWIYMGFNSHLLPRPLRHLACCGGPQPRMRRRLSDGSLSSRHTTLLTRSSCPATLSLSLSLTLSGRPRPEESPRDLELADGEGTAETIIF
# human V2R [6] = molecular target: T2, human V2R; experiment: β-arrestin-2 recruitment BRET at V2R; format: cell-based; parameters: expressed in transfected cells; host or cells: HEK293
# human V1aR [7] = molecular target: T3, human V1aR; experiment: Antagonist screen and Schild regression analysis (IP1) at V1aR
# human OTR [8] = molecular target: T1, human OTR; experiment: IP1 accumulation (IP-One Gq assay), HEK293 cells expressing OTR
# human V1aR [9] = molecular target: T3, human V1aR; experiment: IP1 accumulation (IP-One Gq assay), HEK293 cells expressing V1aR; conditions: concentrations up to 10 µM
# human V1bR [10] = molecular target: T4, human V1bR; experiment: IP1 accumulation (IP-One Gq assay), HEK293 cells expressing V1bR
# human V2R [11] = molecular target: T2, human V2R; experiment: cAMP accumulation (LANCE Ultra cAMP), HEK293 cells expressing V2R
# [12] = molecular target: EGFP-tagged human oxytocin receptor (human) (UniProt P30559)
# [13] = molecular target: EGFP-tagged human vasopressin V1a receptor (human) (UniProt P37288)
# [14] = molecular target: EGFP-tagged human vasopressin V1b receptor (human) (UniProt P47901)
# [15] = molecular target: EGFP-tagged human vasopressin V2 receptor (human) (UniProt P30518)
# [16] = molecular target: EGFP-tagged human oxytocin receptor (human) (UniProt P30559); remark: listed apart in the source
# [17] = molecular target: EGFP-tagged human vasopressin V1b receptor (human) (UniProt P47901); remark: listed apart in the source
# [18] = molecular target: EGFP-tagged human vasopressin V2 receptor (human) (UniProt P30518); remark: listed apart in the source
compound,measurement,setting,value
CC[C@H](C)[C@@H]1NC(=O)[C@H](Cc2ccccc2)NC(=O)[C@@H](N)CSSC[C@@H](C(=O)N2CCC[C@H]2C(=O)N[C@H](C(=O)NCC(N)=O)[C@@H](C)CC)NC(=O)[C@H](CC(N)=O)NC(=O)[C@H]([C@@H](C)O)NC1=O [I8-arachnotocin] (H-CFITNCPIG-NH2; disulfide 1-6; N-terminus assumed),"course of ERK 1/2 phosphorylation after the peak (late phase, 30–120 min)",[1]; 1 min to 2 h,decreased over time
same,time of peak ERK 1/2 phosphorylation,[1]; HEK293 expressing human V2R,5 min
same,Emax,human OTR [2],32 ± 5%
same,EC50,"human OTR [2]; EC50, β-arrestin-2 recruitment, OTR",5700 nM
same,β-arrestin-2 recruitment kinetics,"human OTR [2]; OTR, 10 µM ligand",absent
same,bias (method of Kenakin) compared to OT,"human OTR [2]; OTR, G protein vs β-arrestin-2",did not detect differences
same,EC50,"human OTR [2]; pEC50 (as logEC50 ± SEM), β-arrestin-2 recruitment, OTR",5750 nM
same,β-arrestin-1 recruitment kinetics,"human V2R [3]; 10 µM ligand, time-dependent",failed to recruit β-arrestin-1
same,β-arrestin-1 recruitment,human V2R [3]; up to 100 µM,no β-arrestin-1 recruitment
same,β-arrestin-2 recruitment kinetics,human V1aR [4]; 10 µM ligand,absent
same,β-arrestin-2 recruitment,human V1aR [4]; concentration up to 100 µM,no I8-arachnotocin-induced β-arrestin-2 recruitment was detected
same,Emax,human V1bR [5],65 ± 5%
same,bias (method of Kenakin) compared to VP,"human V1bR [5]; V1bR, G protein vs β-arrestin-2",did not detect differences
same,EC50,"human V1bR [5]; V1bR, read-out: EC50",1200 nM
same,EC50,"human V1bR [5]; V1bR, read-out: pEC50 (as logEC50 ± SEM) (converted)",1200 nM
same,difference non-β-arrestin-dependent vs β-arrestin-dependent EC50,human V2R [6],"> 2,000 fold"
same,β-arrestin-2 recruitment kinetics,human V2R [6]; 10 µM ligand,absent
same,β-arrestin-2 recruitment,human V2R [6]; up to a concentration of 100 µM,did not recruit β-arrestin-2
same,EC50,"human V2R [6]; β-arrestin-1 or -2 recruitment, read-out: EC50 of β-arrestin-dependent signaling pathway",> 100000 nM
same,pA2 expressed as concentration,human V1aR [7]; Schild regression at V1aR,558 nM and ~ 558 nM
same,pA2,"human V1aR [7]; Schild regression, VP curves in presence of 1, 3, 10 µM I8-arachnotocin",6.25 and 6.253
same,Schild regression slope,"human V1aR [7]; V1aR, VP as agonist",1.28 ± 0.02
same,type of antagonism,"human V1aR [7]; V1aR, dextral shift without affecting Emax",competitive antagonist
same,IP1 levels in antagonist screen,human V1aR [7]; VP (0.55 nM) in the presence of 1 and 10 µM I8-arachnotocin,lower IP1 levels than VP alone
same,EC50,"human OTR [8]; EC50, IP1 accumulation, G protein-mediated, OTR",790 nM
same,Emax,human OTR [8]; HEK293,62 ± 6%
same,type of agonism,"human OTR [8]; OTR, second messenger signaling",partial agonist
same,fold less potent compared to the endogenous peptide,"human OTR [8]; OTR, vs OT",65 fold
same,EC50,"human OTR [8]; pEC50 (as logEC50 ± SEM), IP1 accumulation, OTR",776 nM
same,activation of V1aR,human V1aR [9],No activation
same,EC50,"human V1bR [10]; EC50, IP1 accumulation, G protein-mediated, V1bR",1200 nM
same,Emax,human V1bR [10]; HEK293,104 ± 8%
same,type of agonism,"human V1bR [10]; V1bR, second messenger signaling",full agonist
same,fold less potent compared to the endogenous peptide,"human V1bR [10]; V1bR, vs VP",750 fold
same,EC50,"human V1bR [10]; pEC50 (as logEC50 ± SEM), IP1 accumulation, V1bR",1170 nM
same,EC50,"human V2R [11]; EC50, cAMP accumulation, G protein-mediated, V2R",34 nM
same,Emax,human V2R [11]; HEK293,99 ± 3%
same,type of agonism,"human V2R [11]; V2R, second messenger signaling",full agonist
same,fold less potent compared to the endogenous peptide,"human V2R [11]; V2R, vs VP","5,000 fold"
same,EC50,"human V2R [11]; pEC50 (as logEC50 ± SEM), cAMP accumulation, V2R",33.9 nM
I8-arachnotocin (peptide),IP1 accumulation (Gαq) in HEK293 cells expressing human OTR; EC50,[12],790 nM
same,IP1 accumulation (Gαq) in HEK293 cells expressing human OTR; Emax relative to OT,[12],62%
same,"Schild regression of VP-induced IP1 accumulation at human V1aR in the presence of 1, 3 and 10 µM I8-arachnotocin (blocks VP at V1aR); pA2",[13],6.25
same,"Schild regression of VP-induced IP1 accumulation at human V1aR in the presence of 1, 3 and 10 µM I8-arachnotocin (blocks VP at V1aR); pA2 as a concentration",[13],0.558 µM
same,IP1 accumulation (Gαq) in HEK293 cells expressing human V1bR; EC50,[14],1200 nM
same,IP1 accumulation (Gαq) in HEK293 cells expressing human V1bR; Emax relative to VP,[14],104%
same,cAMP accumulation (Gαs) in HEK293 cells expressing human V2R; EC50,[15],34 nM
same,cAMP accumulation (Gαs) in HEK293 cells expressing human V2R; Emax relative to VP,[15],99%
same,β-arrestin-2 recruitment to OTR (BRET) against I8-arachnotocin concentration; EC50,[16],5700 nM
same,β-arrestin-2 recruitment to V1bR (BRET) against I8-arachnotocin concentration; EC50,[17],1200 nM
same,non-β-arrestin-dependent signaling at V2R as restated in the discussion; EC50,[18],50 nM
same,β-arrestin-dependent signaling (β-arrestin recruitment) at V2R as restated in the discussion; EC50,[18],> 100000 nM
oxytocin (from UniProt P01178 20-28) (peptide),IP1 accumulation (Gαq) in HEK293 cells expressing human OTR; EC50,[12],12 nM
same,β-arrestin-2 recruitment to OTR (BRET) against OT concentration; EC50,[16],170 nM

# From paper PMC6917733 (Scientific Reports, 2019)
